The target in this test is Human factor D (Homo sapiens (Human), UniProt P00746). Briefly: Human Factor D Assay. Format: biochemical. To be noted: Human factor D 80 nM, substrate Z-L-Lys-SBzl, assay of Example 12. As for the experimental part:
Example 12. Human Factor D Assay
Human factor D (purified from human serum, Complement Technology, Inc.) at 80 nM final concentration is incubated with test compound at various concentrations for 5 minutes at room temperature in 50 mM Tris, 1M NaCl, pH 7.5. A synthetic substrate Z-L-Lys-SBzl and DTNB (Ellman's reagent) are added to final concentrations of 100 μM each. The increase in color is recorded at OD405 nm in a microplate in kinetic mode over 30 minutes with 30 second time points in a spectrofluorimeter. IC50 values are calculated by non-linear regression from the percentage of inhibition of complement factor D activity as a function of test compound concentration.

Each structure is given as a SMILES string. pIC50: −log10 of the molar value.

Chain of Human factor D (P00746 26-253): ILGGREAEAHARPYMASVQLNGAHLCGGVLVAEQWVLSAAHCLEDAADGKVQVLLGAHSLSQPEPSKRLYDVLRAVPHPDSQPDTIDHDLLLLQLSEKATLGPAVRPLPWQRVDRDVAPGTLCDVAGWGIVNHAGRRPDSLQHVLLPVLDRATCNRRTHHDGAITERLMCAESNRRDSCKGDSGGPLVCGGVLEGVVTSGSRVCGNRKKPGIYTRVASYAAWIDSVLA

With `NC(=O)c1nn(CC(=O)N2[C@@H]3C[C@@H]3C[C@H]2C(=O)Nc2cccc(C3CC3)n2)c2ccc(C#Cc3ncccn3)cc12` [Compound 54, 1-(2-((1R,3S,5R)-3-(6-cyclopropylpyridin-2-ylcarbamoyl)-2-azabicyclo[3.1.0]hexan-2-yl)-2-oxoethyl)-5-(pyrimidin-2-ylethynyl)-1H-indazole-3-carboxamide], the pIC50 (commonly −log10 of the IC50, conventionally taken in molar units) was greater than 6.00.

For the molecule `CC(=O)c1cn(CC(=O)N2C[C@H](F)C[C@H]2C(=O)NCc2cccc(Cl)c2F)c2ccc(C#Cc3cnccn3)cc12` [Compound 26, (2S,4R)-1-(2-(3-acetyl-5-(pyrazin-2-ylethynyl)-1H-indol-1-yl)acetyl)-N-(3-chloro-2-fluorobenzyl)-4-fluoropyrrolidine-2-carboxamide], the negative-log IC50 (pIC50) is greater than 6.00.

`CC1(C)CCCC(NC(=O)[C@@H]2C[C@@H](F)CN2C(=O)Cn2nc(C(N)=O)c3cc(C#Cc4ncccn4)ccc32)C1` (stereo partly drawn) [Compound 44, 1-(2-((2S,4R)-2-(3,3-dimethylcyclohexylcarbamoyl)-4-fluoropyrrolidin-1-yl)-2-oxoethyl)-5-(pyrimidin-2-ylethynyl)-1H-indazole-3-carboxamide] had a pIC50 greater than 6.00.

`NC(=O)c1nn(CC(=O)N2C[C@H](F)C[C@H]2C(=O)Nc2nc(Cl)ccc2F)c2ccc(C#Cc3ncc(F)cn3)cc12` [Compound 81, 1-(2-((2S,4R)-2-(6-chloro-3-fluoropyridin-2-ylcarbamoyl)-4-fluoropyrrolidin-1-yl)-2-oxoethyl)-5-((5-fluoropyrimidin-2-yl)ethynyl)-1H-indazole-3-carboxamide]: the pIC50 is greater than 6.00.

With `Cc1cnc(C#Cc2ccc3c(c2)c(C(N)=O)nn3CC(=O)N2C[C@H](F)C[C@H]2C(=O)Nc2cccc(Br)n2)nc1` [Compound 91, 1-(2-((2S,4R)-2-(6-bromopyridin-2-ylcarbamoyl)-4-fluoropyrrolidin-1-yl)-2-oxoethyl)-5-((5-methylpyrimidin-2-yl)ethynyl)-1H-indazole-3-carboxamide], the pIC50 was greater than 6.00.

Consider `NC(=O)c1nn(CC(=O)N2[C@@H]3C[C@@H]3C[C@H]2C(=O)Nc2cccc(OC(F)(F)F)c2F)c2ccc(C#Cc3ncccn3)cc12` [Compound 34, 1-(2-((1R,3S,5R)-3-(2-fluoro-3-(trifluoromethoxy)phenyl-carbamoyl)-2-azabicyclo[3.1.0]hexan-2-yl)-2-oxoethyl)-5-(pyrimidin-2-ylethynyl)-1H-indazole-3-carboxamide], for which the negative-log IC50 (pIC50) is greater than 6.00.

Molecule `NC(=O)c1nn(CC(=O)N2[C@@H]3C[C@@H]3C[C@H]2C(=O)Nc2cccc(-c3ccccc3Cl)c2F)c2ccc(C#Cc3ncccn3)cc12` [Compound 27, 1-(2-((1R,3S,5R)-3-(2′ chloro-2-fluorobiphenyl-3-ylcarbamoyl)-2-azabicyclo[3.1.0]hexan-2-yl)-2-oxoethyl)-5-(pyrimidin-2-ylethynyl)-1H-indazole-3-carboxamide] had a negative logarithm of the IC50 (pIC50) greater than 6.00.

Consider `NC(=O)c1nn(CC(=O)N2C[C@H](F)C[C@H]2C(=O)NCc2cccc(Cl)c2F)c2ccc(C#Cc3cccc(F)n3)cc12` [Compound 37, 1-(2-((2S,4R)-2-(3-chloro-2-fluorobenzylcarbamoyl)-4-fluoropyrrolidin-1-yl)-2-oxoethyl)-5-((6-fluoropyridin-2-yl)ethynyl)-1H-indazole-3-carboxamide], for which the pIC50 is greater than 6.00.

As to `CC(=O)c1nn(CC(=O)N2C[C@H](F)C[C@H]2C(=O)Nc2cccc(Br)n2)c2ccc(C#Cc3ncc(F)cn3)cc12` [Compound 90, (2S,4R)-1-(2-(3-acetyl-5-((5-fluoropyrimidin-2-yl)ethynyl)-1H-indazol-1-yl)acetyl)-N-(6-bromopyridin-2-yl)-4-fluoropyrrolidine-2-carboxamide], the negative logarithm of the IC50 (pIC50) is greater than 6.00.

In turn, `NC(=O)c1nn(CC(=O)N2C[C@H](F)C[C@H]2C(=O)Nc2cccc(Cl)c2F)c2ccc(C#Cc3ncccn3)cc12` [Compound 25, 1-(2-((2S,4R)-2-(3-chloro-2-fluorophenylcarbamoyl)-4-fluoropyrrolidin-1-yl)-2-oxoethyl)-5-(pyrimidin-2-ylethynyl)-1H-indazole-3-carboxamide] showed a negative-log IC50 (pIC50) greater than 6.00.

The values above are taken from patent publication US9828396B2, “Alkyne compounds for treatment of complement mediated disorders” (Achillion Pharmaceuticals, Inc., priority 2014, dated 2017).
